Read-outs that look alike come from different tables or passages of the source.
Assays:
[1] = system: transplanted tumor of human bladder cancer cell T-24; assay: T-24 transplanted tumor in nude mice
Method: (§1) Then cell concentration was adjusted to 1×10^7/ml with matrigel, then each nude mouse was inoculated subcutaneously with 0.2 ml of cells at its right armpit and recorded as the first day of inoculation. When the tumor grows to be greater than or equal to 100 mm^3, the mice were randomly divided into 11 groups with 6 mice in each group: isovaleryl spiramycin I groups with doses of 25, 50 and 100 mg/kg, isovaleryl spiramycin II groups with doses of 25, 50 and 100 mg/kg, and isovaleryl spiramycin III groups with doses of 25, 50 and 100 mg/kg. Each group was continuously administered intragastrically for 30 days with a dose of 20 ml/kg. The mice were sacrificed the next day after drug withdrawal and the indicators were tested. The long diameter and short diameter of the tumor, and the body weight of each mouse were recorded every 3 days from drug administration to nude mouse sacrifice.
(§2) The body weight of the nude mice and the long diameter (a) and short diameter (b) of the transplanted tumor were measured every 3 days, and the tumor volume (v), relative tumor volume (RTV) and relative tumor proliferation rate (T/C) are calculated respectively according to the following formulas, wherein V=a×b^2/2; RTV=V/V0 (V0 is the tumor volume before administration, V is the tumor volume before sacrifice), and T/C (%)=treatment group RTV/model control group RTV×100%.
(§3) Each mouse was weighed and sacrificed. After the tumor was completely stripped off from the body of the mouse, the non-tumor tissues such as blood stains and fat were removed to weigh the tumor and calculate the tumor growth inhibition rate. The average tumor weight of each group of mice is used as an indicator of efficacy. Tumor growth inhibition rate (%)=(1−the average tumor weight of the treatment group/the average tumor weight of the model group)×100%.

[2] = system: transplanted tumor of human glioblastoma cell A172; details: for Tumor Volume (mm3) (d 1): d1
Method: as §1, with “a model group, a temozolomide group, […], […], […]” for “isovaleryl spiramycin I groups with doses of 25, 50 and 100 mg/kg, isovaleryl spiramycin II groups with doses of 25, 50 and 100 mg/kg, and isovaleryl spiramycin III groups with doses of 25, 50 and 100 mg/kg.”
as §2, §3

[3] = T-24, high dose (100 mg/kg in method) i.g. 30 days
[4] = T-24, low dose (25 mg/kg in method) i.g. 30 days
[5] = T-24, medium dose (50 mg/kg in method) i.g. 30 days
[6] = A172, high dose (100 mg/kg in method) i.g. 30 days
[7] = A172, low dose (25 mg/kg in method) i.g. 30 days
[8] = A172, medium dose (50 mg/kg in method) i.g. 30 days

O=P1(N(CCCl)CCCl)NCCCO1 (stereo not drawn) [Cyclophosphamide, cyclophosphamide, reference compound]
Inhibition Rate (%) ([1]; dose 30 mg/kg): 73.04% | Relative Tumor Proliferation Rate (T/C) ([1]; dose 30 mg/kg): 21.60% | Relative Tumor Volume (RTV) ([1]; dose 30 mg/kg): 2.85 ± 0.50 | Tumor Weight ([1]; dose 30 mg/kg): 0.51 ± 0.12 g | Body Weight (g) (d1) ([1]; dose 30 mg/kg, d 1): 19.53 ± 0.61 g | Tumor Volume (mm3) (d 1) ([1]; dose 30 mg/kg, d 1): 136.87 ± 19.82 mm3 | Body Weight (g) (d30) ([1]; dose 30 mg/kg, d 30): 27.28 ± 1.43 g | Tumor Volume (mm3) (d30) ([1]; dose 30 mg/kg, d 30): 389.34 ± 82.07 mm3

CO[C@@H]1[C@@H](O[C@@H]2O[C@H](C)[C@@H](O[C@H]3C[C@@](C)(O)[C@@H](OC(=O)CC(C)C)[C@H](C)O3)[C@H](N(C)C)[C@H]2O)[C@@H](CC=O)C[C@@H](C)[C@@H](O[C@H]2CC[C@H](N(C)C)[C@@H](C)O2)/C=C/C=C/C[C@@H](C)OC(=O)C[C@H]1O [Isovaleryl spiramycin I, isovaleryl spiramycin I]
Relative Tumor Proliferation Rate (T/C) [1, 3]: 33.95% | tumor growth inhibition rate [1, 3]: 65.84% | Relative Tumor Proliferation Rate (T/C) [1, 4]: 77.78% | tumor growth inhibition rate [1, 4]: 20.55% | tumor volume and relative tumor volume compared with the model group ([1]; T-24, low, medium and high doses, P<0.05): significantly lower | Relative Tumor Proliferation Rate (T/C) [1, 5]: 58.92% | tumor growth inhibition rate [1, 5]: 49.20% | Inhibition Rate (%) ([1]; dose 25 mg/kg): 20.55% | Relative Tumor Proliferation Rate (T/C) ([1]; dose 25 mg/kg): 77.78% | Relative Tumor Volume (RTV) ([1]; dose 25 mg/kg): 10.28 ± 1.12 | Tumor Weight ([1]; dose 25 mg/kg): 1.49 ± 0.23 g | Tumor Volume (mm3) (d 1) ([1]; dose 25 mg/kg, d 1): 139.84 ± 15.80 mm3 | Tumor Volume (mm3) (d30) ([1]; dose 25 mg/kg, d 30): 1428.71 ± 156.12 mm3 | Inhibition Rate (%) ([1]; dose 50 mg/kg): 49.20% | Relative Tumor Proliferation Rate (T/C) ([1]; dose 50 mg/kg): 58.92% | Relative Tumor Volume (RTV) ([1]; dose 50 mg/kg): 7.78 ± 1.27 | Tumor Weight ([1]; dose 50 mg/kg): 0.95 ± 0.38 g | Tumor Volume (mm3) (d 1) ([1]; dose 50 mg/kg, d 1): 131.81 ± 7.15 mm3 | Tumor Volume (mm3) (d30) ([1]; dose 50 mg/kg, d 30): 1025.16 ± 174.78 mm3 | Inhibition Rate (%) ([1]; dose 100 mg/kg): 65.84% | Relative Tumor Proliferation Rate (T/C) ([1]; dose 100 mg/kg): 33.95% | Relative Tumor Volume (RTV) ([1]; dose 100 mg/kg): 4.48 ± 0.75 | Tumor Weight ([1]; dose 100 mg/kg): 0.64 ± 0.18 g | Tumor Volume (mm3) (d 1) ([1]; dose 100 mg/kg, d 1): 134.21 ± 14.43 mm3 | Tumor Volume (mm3) (d30) ([1]; dose 100 mg/kg, d 30): 606.16 ± 136.06 mm3 | mouse weight compared with the model group ([1]; mouse, in vivo): no significant changes | Body Weight (g) (d1) ([1]; mouse, in vivo, 25 mg/kg): 19.51 ± 0.58 g | Body Weight (g) (d30) ([1]; mouse, in vivo, 25 mg/kg): 23.89 ± 1.18 g | Body Weight (g) (d1) ([1]; mouse, in vivo, 50 mg/kg): 19.60 ± 0.70 g | Body Weight (g) (d30) ([1]; mouse, in vivo, 50 mg/kg): 25.41 ± 0.92 g | Body Weight (g) (d1) ([1]; mouse, in vivo, 100 mg/kg): 19.49 ± 0.54 g | Body Weight (g) (d30) ([1]; mouse, in vivo, 100 mg/kg): 24.6 ± 2.08 g | Relative Tumor Proliferation Rate (T/C) [2, 6]: 25.16% | tumor growth inhibition rate [2, 6]: 68.79% | Relative Tumor Proliferation Rate (T/C) [2, 7]: 74.49% | tumor growth inhibition rate [2, 7]: 30.75% | tumor volume and relative tumor volume compared with the model group ([2]; A172, low, medium and high doses, P<0.05): significantly lower | Relative Tumor Proliferation Rate (T/C) [2, 8]: 43.43% | tumor growth inhibition rate [2, 8]: 44.26% | Inhibition Rate (%) ([2]; A172 nude mice, 12.5 mg/kg): 30.75% | Relative Tumor Proliferation Rate (T/C) ([2]; A172 nude mice, 12.5 mg/kg): 74.49% | Relative Tumor Volume (RTV) ([2]; A172 nude mice, 12.5 mg/kg): 12.69 ± 1.08 | Tumor Weight ([2]; A172 nude mice, 12.5 mg/kg): 0.96 ± 0.08 g | Tumor Volume (mm3) (d 1) ([2]; A172 nude mice, 12.5 mg/kg): 120.36 ± 10.15 mm3 | Tumor Volume (mm3) (d30) ([2]; A172 nude mice, 12.5 mg/kg): 1519.32 ± 71.53 mm3 | Inhibition Rate (%) ([2]; A172 nude mice, 25 mg/kg): 44.26% | Relative Tumor Proliferation Rate (T/C) ([2]; A172 nude mice, 25 mg/kg): 43.43% | Relative Tumor Volume (RTV) ([2]; A172 nude mice, 25 mg/kg): 10.67 ± 1.08 | Tumor Weight ([2]; A172 nude mice, 25 mg/kg): 0.77 ± 0.09 g | Tumor Volume (mm3) (d 1) ([2]; A172 nude mice, 25 mg/kg): 121.90 ± 10.10 mm3 | Tumor Volume (mm3) (d30) ([2]; A172 nude mice, 25 mg/kg): 889.01 ± 195.61 mm3 | Inhibition Rate (%) ([2]; A172 nude mice, 50 mg/kg): 68.79% | Relative Tumor Proliferation Rate (T/C) ([2]; A172 nude mice, 50 mg/kg): 25.16% | Relative Tumor Volume (RTV) ([2]; A172 nude mice, 50 mg/kg): 10.05 ± 0.71 | Tumor Weight ([2]; A172 nude mice, 50 mg/kg): 0.43 ± 0.07 g | Tumor Volume (mm3) (d 1) ([2]; A172 nude mice, 50 mg/kg): 122.38 ± 6.44 mm3 | Tumor Volume (mm3) (d30) ([2]; A172 nude mice, 50 mg/kg): 513.12 ± 89.49 mm3 | mouse weight compared with the model group ([2]; mouse, in vivo): no significant changes | Body Weight (g) (d1) ([2]; mouse, in vivo, 12.5 mg/kg): 21.06 ± 0.43 g | Body Weight (g) (d30) ([2]; mouse, in vivo, 12.5 mg/kg): 20.34 ± 0.17 g | Body Weight (g) (d1) ([2]; mouse, in vivo, 25 mg/kg): 20.98 ± 0.73 g | Body Weight (g) (d30) ([2]; mouse, in vivo, 25 mg/kg): 20.93 ± 0.54 g | Body Weight (g) (d1) ([2]; mouse, in vivo, 50 mg/kg): 21.00 ± 0.65 g | Body Weight (g) (d30) ([2]; mouse, in vivo, 50 mg/kg): 20.88 ± 0.58 g
